Our source for the IC50, EC50 and Efficacy values is ChEMBL document CHEMBL1131353, “Structurally similar small molecule photoaffinity CCK-A agonists and antagonists as novel tools for directly probing 7TM receptors-ligand interactions” (Bioorg Med Chem Lett, 1998).

The target of experiment [1] is T1, Cholecystokinin receptor type A (Rattus norvegicus, UniProt P30551).
T1 sequence (P30551 whole entry): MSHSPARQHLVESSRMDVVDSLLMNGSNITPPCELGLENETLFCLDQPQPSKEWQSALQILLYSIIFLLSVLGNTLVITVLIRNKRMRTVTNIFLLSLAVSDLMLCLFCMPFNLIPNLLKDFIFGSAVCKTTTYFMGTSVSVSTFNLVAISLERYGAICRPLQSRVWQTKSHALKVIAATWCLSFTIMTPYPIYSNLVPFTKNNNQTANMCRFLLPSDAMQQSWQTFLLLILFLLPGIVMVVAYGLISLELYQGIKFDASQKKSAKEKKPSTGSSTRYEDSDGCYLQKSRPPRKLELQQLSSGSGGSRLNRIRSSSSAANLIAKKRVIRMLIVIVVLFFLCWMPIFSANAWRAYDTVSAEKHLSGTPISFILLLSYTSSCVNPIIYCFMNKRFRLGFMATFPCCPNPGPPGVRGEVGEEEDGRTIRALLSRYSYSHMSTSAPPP
As to the kind of experiment: Displacement of 125I]-D-Tyr-Gly-[(Nle28,31)CCK-26-33] from rat cell membrane Cholecystokinin type A receptor. A general note: Loss of bound radioactivity is the signal in a displacement assay; it reports binding, not function.

For experiment [2], the species on record is Rattus norvegicus. As to the kind of experiment: Compound was tested in vitro for its ability to stimulate dispersed rat pancreatic acini to secrete amylase into the medium using CCK-8 as an agonist control. Type of experiment: functional.
The target in experiment [3] is T2, Cholecystokinin receptor type A (Rattus norvegicus) (UniProt P30551).
T2 sequence (whole entry): T1 sequence (P30551 whole entry)
The experiment in a line: In vitro efficacy was measured in rat Cholecystokinin type A receptor at 1.0 uM.

The species entered for experiment [4] is Rattus norvegicus. The experiment in a line: Compound was tested in vitro for its ability to stimulate dispersed rat pancreatic acini to secrete amylase into the medium using CCK-8 as an agonist control; no activity detected at maximum concentration. Type of experiment: functional.

A word on the IC50: it is the concentration at which inhibition is half-maximal. Read a low IC50 as greater potency. The term EC50 denotes the concentration at which the effect is half-maximal. Take `CC(C)N(C(=O)CN1C(=O)C(NC(=O)Nc2cccc(C3(C(F)(F)F)N=N3)c2)C(=O)N(c2ccccc2)c2ccccc21)c1ccccc1` (centres undefined): in experiment [1], the IC50 is 1300 nM. This compound also gave an EC50 in the experiment filed under Rattus norvegicus [2] of 930 nM. Besides, the Efficacy in experiment [3] came to 47%.

Consider `CC(C)N(C(=O)CN1C(=O)C(NC(=O)Nc2ccccc2)C(=O)N(c2ccccc2)c2ccccc21)c1ccccc1` (centres undefined), for which the midpoint of the response in the experiment filed under Rattus norvegicus [2], the EC50, lay at 40 nM. This compound displayed an Efficacy in experiment [3] of 83%.

In experiment [1], `COc1ccc(N(C)C(=O)CN2C(=O)C(NC(=O)Nc3cccc(C(=O)c4ccccc4)c3)C(=O)N(c3ccccc3)c3ccccc32)cc1` (centres undefined) showed an IC50 of 350 nM. Also, the EC50 result in the experiment filed under Rattus norvegicus [4] is given as “Not Active”.

`CN(C(=O)CN1C(=O)C(NC(=O)Nc2cccc(C3(C(F)(F)F)N=N3)c2)C(=O)N(c2ccccc2)c2ccccc21)c1ccccc1` (centres undefined) gave an IC50 in experiment [1] of 310 nM. Besides, the EC50 entry in the experiment filed under Rattus norvegicus [4] is given as “Not Active”.

In experiment [1], `COc1ccc(N(C(=O)CN2C(=O)C(NC(=O)Nc3ccccc3)C(=O)N(c3ccccc3)c3ccccc32)C(C)C)cc1` (centres undefined) displayed an IC50 of 50 nM.

Turning to `COc1ccc(N(C)C(=O)CN2C(=O)C(NC(=O)Nc3cccc(C4(C(F)(F)F)N=N4)c3)C(=O)N(c3ccccc3)c3ccccc32)cc1` (centres undefined), in experiment [1], the IC50 was found to be 410 nM. Also, the EC50 result in the experiment filed under Rattus norvegicus [4] was “Not Active”.

`COc1ccc(N(C)C(=O)CN2C(=O)C(NC(=O)Nc3ccccc3)C(=O)N(c3ccccc3)c3ccccc32)cc1` (centres undefined): the IC50 in experiment [1] amounted to 390 nM.

In experiment [1], `CC(C)N(C(=O)CN1C(=O)C(NC(=O)Nc2cccc(C(=O)c3ccccc3)c2)C(=O)N(c2ccccc2)c2ccccc21)c1ccccc1` (centres undefined) had an IC50 of 160 nM. Further, the EC50 in the experiment filed under Rattus norvegicus [2] is 730 nM. The same compound gave an Efficacy in experiment [3] of 64%.

Regarding `COc1ccc(N(C(=O)CN2C(=O)C(NC(=O)Nc3cccc(C(=O)c4ccccc4)c3)C(=O)N(c3ccccc3)c3ccccc32)C(C)C)cc1` (centres undefined), in experiment [1], the IC50 stood at 80 nM. The compound also had an EC50 in the experiment filed under Rattus norvegicus [2] of 460 nM. For the same compound, the Efficacy in experiment [3] is 68%.

Take `CSCC[C@H](NC(=O)[C@H](Cc1ccc(OS(=O)(=O)O)cc1)NC(=O)[C@@H](N)CC(=O)O)C(=O)NCC(=O)N[C@@H](Cc1c[nH]c2ccccc12)C(=O)N[C@@H](CCSC)C(=O)N[C@@H](CC(=O)O)C(=O)N[C@@H](Cc1ccccc1)C(N)=O` [SINCALIDE]: the EC50 in the experiment listed under Rattus norvegicus [2] turned out to be 0.014 nM.

`COc1ccc(N(C(=O)CN2C(=O)C(NC(=O)Nc3cccc(C4(C(F)(F)F)N=N4)c3)C(=O)N(c3ccccc3)c3ccccc32)C(C)C)cc1` (centres undefined) gave an IC50 in experiment [1] of 440 nM. In the experiment listed under Rattus norvegicus [2], this compound yielded an EC50 of 600 nM. Moreover, in experiment [3], the Efficacy is 75%.

Compound `CN(C(=O)CN1C(=O)C(NC(=O)Nc2cccc(C(=O)c3ccccc3)c2)C(=O)N(c2ccccc2)c2ccccc21)c1ccccc1` (centres undefined) displayed a half-inhibitory concentration (IC50) in experiment [1] of 290 nM.
